Assay results: ChEMBL document CHEMBL6115010, “Targeting glioma with heteroaromatic alkaloids: A review of potential therapeutics” (Bioorg Med Chem, 2025)
In brackets after ≈: the same amount, converted by molar mass.

Assays:
[1] = Cytotoxicity against human GSC-3 cells assessed as reduction in cell growth incubated for 72 hrs by MTS assay; format: functional, cell-based; details: GSC-3, 72 h
[2] = Cytotoxicity against human GSC-18 cells assessed as reduction in cell growth incubated for 72 hrs by MTS assay; format: functional, cell-based; details: GSC18, 72 h
[3] = Cytotoxicity against rat ASK cells assessed as reduction in cell growth by SRB assay; format: functional; details: read-out: ED50 (the source's name)
T98G [4] = assay: Growth inhibition of human T98G cells measured after 72 hrs by MTT assay; format: functional
[5] = Growth inhibition of human U373 MG cells measured after 72 hrs by MTT assay; format: functional, U-373MG ATCC
U-87 MG [6] = assay: Growth inhibition of human U-87 MG cells measured after 72 hrs by MTT assay; format: functional, U-87MG ATCC
Hs68 = assay: Growth inhibition of human Hs68 cells measured after 72 hrs by MTT assay; format: functional
[7] = Cytotoxicity against HEK293T cells assessed as reduction in cell viability incubated for 72 hrs by MTS assay; format: toxicity, cell-based, HEK-293T; details: human
[8] = Cytotoxicity against human CHG-5 cells assessed as reduction in cell growth incubated for 24 hrs by MTT assay; format: functional, cell-based; details: CHG-5, 24 h
CCF-STTG1 = assay: Cytotoxicity against human CCF-STTG1 cells assessed as reduction in cell growth incubated for 24 hrs by MTT assay; format: functional, cell-based; details: CCF-STTG1, 24 h
[9] = Cytotoxicity against human SHG-44 cells assessed as reduction in cell growth incubated for 24 hrs by MTT assay; format: functional, cell-based; details: SHG-44, 24 h
U-251 [10] = assay: Cytotoxicity against human U-251MG cells assessed as reduction in cell growth incubated for 24 hrs by MTT assay; format: functional, cell-based; details: U-251, 24 h
C6 [11] = assay: Cytotoxicity against rat C6 cells assessed as reduction in cell growth measured for 48 hrs by MTT assay; format: functional, cell-based; details: C6, 48 h
SF-268 [12] = assay: Cytotoxicity against human SF-268 cells; format: functional; details: read-out: ED50 (the source's name)
T98G [13] = assay: Induction of apoptosis in human T98G cells at 10 ug/ml relative to control; format: functional; details: dose 10 µg/ml
T98G [14] = assay: Antiproliferative activity against human T98G cells assessed as reduction in cell viability incubated for 96 hrs by MTT assay; format: functional, cell-based
RPMI 8402 = assay: Cytotoxicity against human RPMI 8402 cells assessed as reduction in cell viability incubated for 4 days by MTT assay; format: functional, cell-based; details: RPMI 8402, 96 h
U-251 [15] = assay: Growth inhibition of human U-251 cells measured after 48 hrs by sulforhodamine B assay; format: functional
SF-268 [16] = assay: Cytotoxicity against human SF-268 cells assessed as reduction in cell viability incubated for 4 days by MTT assay; format: functional; details: SF-268, 96 h, time 4 day
HaCaT = assay: Growth inhibition of human HaCaT cells measured after 48 hrs by sulforhodamine B assay; format: functional
SF-295 [17] = assay: Cytotoxicity against human SF-295 cells assessed as reduction in cell growth incubated for 96 hrs by MTT assay; format: functional, cell-based; details: SF-295, 96 h
SF-295 [18] = assay: Cytotoxicity against human SF-295 cells; format: functional, cell-based
U-251 [19] = assay: Antiproliferative activity against human U-251MG cells assessed as reduction in cell viability at 50 uM incubated for 48 hrs by CCK-8 assay relative to control; format: functional
U-87 MG [20] = assay: Antiproliferative activity against human U-87 MG cells assessed as reduction in cell viability incubated for 48 hrs by CCK-8 assay; format: functional, cell-based, U-87MG ATCC
U-87 MG [21] = assay: Antiproliferative activity against human U-87 MG cells assessed as reduction in cell viability at 50 uM incubated for 48 hrs by CCK-8 assay relative to control; format: functional, U-87MG ATCC
U-87 MG [22] = assay: Antiproliferative activity against human U-87 MG cells assessed as reduction in cell viability incubated foe 24 hrs by MTT assay; format: functional, cell-based, U-87MG ATCC
LN-18 = assay: Antiproliferative activity against human LN-18 cells assessed as reduction in cell viability incubated for 48 hrs by CCK-8 assay; format: functional, cell-based; details: LN-18, 48 h
C6 [23] = assay: Antiproliferative activity against rat C6 cells assessed as reduction in cell viability incubated foe 24 hrs by MTT assay; format: functional, cell-based; details: C6, 24 h
[24] = Inhibition of rat C6 cells at 1 micromol/L measured for 24 hrs relative to control; format: functional; details: C6, 24 h, dose 1 µmol/L
[25] = Inhibition of rat C6 cells at 2 micromol/L measured for 24 hrs relative to control; format: functional; details: C6, 24 h, dose 2 µmol/L
U-87 MG [26] = assay: Antiproliferative activity against human U-87-MG cells; format: functional, cell-based, U-87MG ATCC
[27] = Inhibition of colony formation in human U-251MG cells assessed as reduction in number of cell clone measured after 14 days by crystal violet staining based microscopic analysis; format: functional; details: 336 h
T98G [28] = assay: Inhibition of colony formation in human T98G cells assessed as reduction in number of cell clone measured after 14 days by crystal violet staining based microscopic analysis; format: functional; details: 336 h
T98G [29] = assay: Antiproliferative activity against human T98G cells assessed as reduction in cell viability incubated for 72 hrs by WST-8 reagent based assay; format: functional
U-118-MG = assay: Antiproliferative activity against human U-118-MG cells assessed as reduction in cell viability incubated for 72 hrs by MTT assay; format: functional, cell-based
U-87 MG [30] = assay: Antiproliferative activity against human U-87 MG cells assessed as reduction in cell viability incubated for 72 hrs by MTT assay; format: functional, cell-based, U-87MG ATCC
T98G [31] = assay: Anticancer activity against human T98G cells assessed as reduction in cell viability; format: functional, cell-based
U-251 [32] = assay: Antiproliferative activity against human U-251MG cells assessed as reduction in cell viability incubated for 72 hrs by MTT assay; format: functional, cell-based; details: U-251, 72 h
U-87 MG [33] = assay: Antiproliferative activity against human U-87 MG cells assessed as reduction in cell viability incubated for 72 hrs by WST-8 reagent based assay; format: functional, U-87MG ATCC

COc1cc2c(cc1Oc1c(C=O)ccc(OC)c1OC)C(=O)c1nccc3c(OC)c(OC)c(OC)c-2c13
IC50 [1]: 2.36 µg/mL (≈ 4.44 µM) | IC50 [2]: 2.55 µg/mL (≈ 4.8 µM) | EC50 [3]: 10.2 µg/mL (≈ 19.2 µM)

CO[C@@H]1C=C[C@]23c4cc5c(cc4[C@@H](O)N(C[C@H]2O)[C@@H]3C1)OCO5
GI50 (T98G [4]): 14 µM | GI50 [5]: 7 µM | GI50 (U-87 MG [6]): 6 µM | GI50 (Hs68): 4 µM

COc1cc2c(cc1OC)[C@H](Cc1cc(O)c(OC)c(Oc3ccc(C=O)cc3)c1)N(C)CC2
IC50 at 72 h [7]: 20 µg/mL (≈ 43.1 µM)

COC(=O)N1CCc2cc(O)c(OC)c3c2[C@@H]1Cc1ccc(OC)c(O)c1-3
IC50 [8]: 12.2 µM | IC50 (CCF-STTG1): 10.4 µM | IC50 [9]: 11.9 µM | IC50 (U-251 [10]): 11.9 µM

COc1ccc(C[C@@H]2c3cc(Oc4cc(C[C@@H]5c6cc(OC)c(OC)cc6CCN5C)ccc4O)c(OC)cc3CCN2C)cc1 [NEFERINE]
IC50 (C6 [11]): 12 µM

O=C1N[C@H]2[C@H](O)[C@H](O)[C@@H](O)[C@H](O)[C@@H]2c2cc3c(c(O)c21)OCO3 [PANCRATISTATIN]
EC50 (SF-268 [12]): 0.017 µg/mL (≈ 0.0523 µM)

COc1ccc2c(c1O)-c1c(O)c(OC)cc3c1[C@H](C2)[N+](C)(C)CC3 [MAGNOFLORINE]
Activity (T98G [13]): 24.02% | IC50 (T98G [14]): 112 µg/mL

COc1cc2c(cc1OC)-c1cc3ccc(OC)c(OC)c3c[n+]1CC2 [PALMITINE]
IC50 (RPMI 8402): 10 µg/mL | GI50 (U-251 [15]): 16.2 µM | GI50 (SF-268 [16]): 3 µg/mL | GI50 (HaCaT): 122 µM

O=C1c2ccc(Br)cc2-[n+]2ccc3c([nH]c4ccccc43)c21
IC50 (SF-295 [17]): 5.6 µM | IC50 (SF-295 [18]): 3.9 µM

COc1cc2c[n+](C)c3c4cc5c(cc4ccc3c2cc1OC)OCO5.[Cl-] [NITIDINE CHLORIDE]
Activity (U-251 [19]): ~50% | IC50 (U-87 MG [20]): 5 µM | Activity (U-87 MG [21]): ~50% | IC50 (U-87 MG [22]): 10 µM | IC50 (LN-18): 5 µM | IC50 (C6 [23]): 8 µM

C[n+]1cc2c3c(ccc2c2ccc4cc5c(cc4c21)OCO5)OCO3
inhibition at 1 µM [24]: 35% | inhibition at 2 µM [25]: 82%

COc1cc2c(cc1OC)-c1c3c(cc4c1[C@H](C2)N(C)CC4)OCO3 [DICENTRINE]
IC50 (U-87 MG [26]): 4.73 µM

Cn1nnc2c(C(N)=O)ncn2c1=O [TEMOZOLOMIDE]
IC50 at 72 h [7]: > 50 µg/mL | EC50 [27]: 23 µM | EC50 (T98G [28]): 430 µM | EC50 (T98G [29]): 390 µM | IC50 (U-118-MG): > 320 µM | IC50 (U-87 MG [30]): 135 µM | EC50 (T98G [31]): 150 µM | IC50 (U-251 [32]): > 320 µM | EC50 (U-87 MG [33]): 42 µM

O[C@@H]1CN2Cc3cc4c(cc3C13C=C[C@H](O)C[C@@H]23)OCO4 (some centres undefined)
GI50 (T98G [4]): 9 µM | GI50 [5]: 38 µM | GI50 (U-87 MG [6]): 9 µM | GI50 (Hs68): 11 µM
